Experimental data taken from ChEMBL document CHEMBL2331554, “Exploring nature profits: development of novel and potent lipophilic antioxidants based on galloyl-cinnamic hybrids” (Eur J Med Chem, 2013).

Assays:
[1] = Antioxidant activity assessed as inhibition of ABTS radical formation for 15 mins by spectrophotometric analysis; format: functional
[2] = test system: Radical scavenging activity; assay: Antioxidant activity assessed as inhibition of DPPH radical formation measured every min for 45 mins by spectrophotometric analysis; format: functional

Compound | IC50 [1] [µM] | inhibition [1] | IC50 [2] [µM] | inhibition [2]
O=C(O)/C=C/c1cc(O)c(O)c(O)c1 | 7.2 | Dose-dependent effect | 11.8 | Dose-dependent effect
CCOC(=O)C(=Cc1ccc(O)c(O)c1)C(=O)OCC | 21.1 | Dose-dependent effect | 21.9 | Dose-dependent effect
CCOC(=O)/C=C/c1cc(O)c(O)c(O)c1 | 9 | Dose-dependent effect | 15.1 | Dose-dependent effect
CCOC(=O)C(=Cc1cc(O)c(O)c(O)c1)C(=O)OCC | 7.7 | Dose-dependent effect | 12.8 | Dose-dependent effect
O=C(O)/C=C/c1ccc(O)c(O)c1 [CAFFEIC ACID] | 17.9 | Dose-dependent effect | 18.1 | Dose-dependent effect
CCOC(=O)/C=C/c1ccc(O)c(O)c1 [ETHYL CAFFEATE] | 22.6 | Dose-dependent effect | 26.6 | Dose-dependent effect
O=C(O)c1cc(O)c(O)c(O)c1 [GALLIC ACID] | 7.8 | Dose-dependent effect | 9.9 | Dose-dependent effect
Cc1c(C)c2c(c(C)c1O)CCC(C)(C(=O)O)O2 (stereo unspecified) [TROLOX] | 26.3 | Dose-dependent effect | 30.9 | Dose-dependent effect
VITAMIN E [listing 1 of 2 here] | 26.8 |  | 31.1 | 
VITAMIN E [listing 2 of 2 here] |  | Dose-dependent effect |  | Dose-dependent effect
